Measurements taken from paper PMC3970082 (FEBS Open Bio, 2014).

Target: T1, 5-aminopentaneamide amide hydrolase (Pseudomonas sp. TPU-A5, UniProt W6JNP2)
T1 sequence (W6JNP2 1-504): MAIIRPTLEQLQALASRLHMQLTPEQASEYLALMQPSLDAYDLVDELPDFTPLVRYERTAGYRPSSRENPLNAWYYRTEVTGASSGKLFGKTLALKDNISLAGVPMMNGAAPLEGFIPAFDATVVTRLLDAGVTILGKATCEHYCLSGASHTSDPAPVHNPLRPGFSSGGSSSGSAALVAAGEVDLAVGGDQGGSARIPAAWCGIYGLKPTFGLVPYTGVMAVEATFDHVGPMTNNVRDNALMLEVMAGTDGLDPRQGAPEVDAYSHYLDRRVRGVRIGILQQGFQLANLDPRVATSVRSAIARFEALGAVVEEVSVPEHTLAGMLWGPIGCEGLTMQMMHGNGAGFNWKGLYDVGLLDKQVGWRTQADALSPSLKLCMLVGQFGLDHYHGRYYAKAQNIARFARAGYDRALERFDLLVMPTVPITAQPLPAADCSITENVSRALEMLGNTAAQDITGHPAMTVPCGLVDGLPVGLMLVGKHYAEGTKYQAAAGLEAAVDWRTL
Assay: ammonia liberation
Format: biochemical
Details: room temperature; purified fractions of native enzyme

CCCCC(N)=O [valeramide]
ammonia liberation (indophenol reaction): assayed at room temperature by measuring the ammonia liberated from valeramide degradation
